Counter-ions that a name gives are not always drawn.
system: Plasmodium falciparum; test: In vitro anti-malarial activity against Plasmodium falciparum, IC50 assay / [3H]-Hypoxanthine incorporation assay; type: cell-based; settings: Erythrocyte; Plasmodium falciparum strains in parasitized red blood cells, [3H]-hypoxanthine incorporation, 48 hours at 37°C
Experimental: The compounds of this invention may be tested in one of several biological assays to determine the concentration of compound which is required to have a given pharmacological effect. In vitro anti-malarial activity against Plasmodium falciparum. IC50 assay / [^3H]-Hypoxanthine assay
The culture medium comprised RPMI 1640 with 25mM HEPES, sodium bicarbonate and glutamine (GIBCO™ cat. ref.: 52400), supplemented with 10% of pooled human sera AB (Irvine Scientific, cat. ref.: 5009) and HT supplement (0.15 mM hypoxanthine and 24 µM thymidine), (GIBCO™ cat. ref.: 41065). Human sera were decomplemented 30 min. at 56°C, aliquoted and stored frozen at -20°C until use in this culture medium.
This culture medium ("complete medium") was usually prepared fresh just before use and pre-warmed to 37°C.
Red blood cells O+ stock suspensions were prepared from whole blood bags coming from incomplete blood donation, provided by the Spanish Red Cross (<25 days after sampling). This "whole blood" was aliquoted and stored at 4°C.
To prepare red blood cells for the assay, the whole blood was centrifuged and washed 3 times with RPMI without serum. The upper phase, containing white blood cells was removed. The washed red blood cells were kept as a 50 % suspension in complete medium. The prepared cells were stored at 4°C and were employed in the assay at any time up to 4 days after preparation.
Test compounds were dissolved at 2 mg/ml in 100% DMSO on the day of the assay. If necessary, complete dissolution was achieved by gentle heating (the mixture was heated at a temperature <37°C) and sonication (sonication bath).
For IC50 determinations, 10 serial 2-fold dilutions were prepared in complete medium in the presence of a constant amount of DMSO. Any obvious signs of insolubility of the stock solutions in 100% DMSO or precipitation when these solutions were diluted in assay media, were recorded.
Plasmodium falciparum strains were maintained in complete medium at an hematocrit of 5% in continuous culture using a method adapted from that published by Trager and Jensen(1) and Traeger(2).
The parasitemia was calculated by counting the percentage of parasitized erythrocytes by optical microscopy. Thin films of blood were made every day from each culture flask, fixed with methanol and stained for 10 min. in Giemsa (Merck, cat. ref.: 1.09204) at 10 % in buffered water pH 7.2. The glass slides were observed and counted with an optical microscope (Nikon, Eclipse E200) equipped with a 100 X immersion oil objective.
The culture was maintained at an hematocrit of 5%, with a daily change of medium and was diluted when parasitemia had reached about 5%.
[^3H] Hypoxanthine incorporation assay was conducted using a method adapted from Desjardins et al. (3). The assays were performed in 96 wells flat bottom microplates. • 1. Serial dilutions of the test compounds (50µl of a 5X solution / well) were deposited in duplicate. Compounds of the invention were tested in this assay. Chloroquine and Atovaquone were used as control compounds for each assay. • 2. […] [^3H]-Hypoxanthine (Amersham Biosciences, cat. ref.: TRK74) was added extemporaneously to the inoculum suspension at a concentration of 1 µCi/ml (equating to […]). 200 µl of the resulting suspension was distributed into each well (other than the control well H12 described below) leading to a final volume of 250 µl per well, at 2% of hematocrit and 0.5 % of parasitemia / well. • 4. […]

SMILES | IC50
Cc1[nH]c(C)c(-c2ccc(C(F)(F)CN3CCC(C(F)(F)F)CC3)nc2)c(=O)c1Cl [Example 67, 5-chloro-6'-{1,1-difluoro-2-[4-(trifluoromethyl)-1-piperidinyl]ethyl}-2,6-dimethyl-3,3'-bipyridin-4(1H)-one] | < 0.125 µg/mL
Cc1[nH]c(C)c(-c2ccc(C#CCNCc3ccc(OC(F)(F)F)cc3)cc2)c(=O)c1Cl [Example 8, 3-Chloro-2,6-dimethyl-5-(4-{3-[({4-[(trifluoromethyl)oxy]phenyl}methyl)amino]-1-propyn-1-yl}phenyl)-4(1H)-pyridinone] | < 0.125 µg/mL
Cc1[nH]c(C)c(-c2ccc(-c3ccc(CN4CCC(F)(F)C4)cc3)cc2)c(=O)c1Cl.Cl [Example 60, 3-chloro-5-{4'-[(3,3-difluoro-1-pyrrolidinyl)methyl]-4-biphenylyl}-2,6-dimethyl-4(1H)-pyridinone hydrochloride] | < 0.125 µg/mL
Cc1[nH]c(C)c(-c2ccc(C#CCN(C)CCC(C)(C)C)cc2)c(=O)c1Cl.Cl [Example 48, 3-Chloro-5-(4-{3-[(3,3-dimethylbutyl)(methyl)amino]-1-propyn-1-yl}phenyl)-2 ,6-dimethyl-4(1H)-pyridinone hydrochloride] | < 0.125 µg/mL
Cc1[nH]c(C)c(-c2ccc(C3=CCN(Cc4ccc(OC(F)(F)F)cc4)CC3)cc2)c(=O)c1Cl.Cl [Example 32, 3-Chloro-2,6-dimethyl-5-{4-[1-({4-[(trifluoromethyl)oxy]phenyl}methyl)-1,2,3,6-tetrahydro-4-pyridinyl]phenyl}-4(1H)-pyridinone hydrochloride] | < 0.125 µg/mL
Cc1[nH]c(C)c(-c2ccc(-c3ccc(CN4CCC(C(F)(F)F)CC4)cc3)cc2)c(=O)c1Cl.Cl [Example 57, 3-chloro-2,6-dimethyl-5-(4'-{[4-(trifluoromethyl) -1-piperidinyl]methyl}-4-biphenylyl)-4(1H)-pyridinone hydrochloride] | < 0.125 µg/mL
Cc1[nH]c(C)c(-c2ccc(-c3ccc(CN(C)Cc4ccc(OC(F)(F)F)cc4)s3)cc2)c(=O)c1Cl.O=C(O)C(F)(F)F [Example 26, 3-Chloro-2,6-dimethyl-5-[4-(5-{[methyl({4-[(trifluoromethyl)oxy]phenyl}methyl)amino]-methyl}-2-thienyl)phenyl] -4(1H)-pyridinone trifluoroacetate] | < 0.125 µg/mL
Cc1[nH]c(C)c(-c2ccc(-c3ccc(CN4CCC(c5ccc(OC(F)(F)F)cc5)CC4)cc3)nc2)c(=O)c1Cl.Cl [Example 64, 5-chloro-2,6-dimethyl-6'-{4-[(4-{4-[(trifluoromethyl)oxy]phenyl}-1-piperidinyl)methyl]phenyl}-3,3'-bipyridin-4(1H)-one hydrochloride] | < 0.125 µg/mL
Cc1[nH]c(C)c(-c2cccc(C#CCN3CCC(c4ccc(OC(F)(F)F)cc4)CC3)c2)c(=O)c1Cl.O=C(O)C(F)(F)F [Example 30, 3-Chloro-2,6-dimethyl-5-{3-[3-(4-{4-[(trifluoromethyl)oxy]phenyl}-1-piperidinyl)-1-propyn-1-yl]phenyl}-4(1H)-pyridinone trifluoroacetate] | < 0.125 µg/mL
Cc1[nH]c(C)c(-c2ccc(C#CCN3CCC(c4ccc(OC(F)(F)F)cc4)CC3)cc2)c(=O)c1Cl.Cl [Example 11, 3-Chloro-2,6-dimethyl-5-{4-[3-(4-{4-[(trifluoromethyl)oxy]phenyl}-1-piperidinyl)-1-propyn-1-yl]phenyl}-4(1H)-pyridinone hydrochloride] | < 0.125 µg/mL

Continued, values first:

IC50 | SMILES
< 0.125 µg/mL | Cc1[nH]c(C)c(-c2ccc(C#CCN(C)Cc3ccco3)cc2)c(=O)c1Cl.Cl [Example 41, 3-Ch loro-5-(4-{3-[(2-furanylmethyl)(methyl)amino]-1-propyn-1-yl}phenyl)-2,6-dimethyl-4(1H)-pyridinone hydrochloride]
< 0.125 µg/mL | Cc1[nH]c(C)c(-c2ccc(C#CCN3CCc4cc(C(F)(F)F)ccc4C3)cc2)c(=O)c1Cl.Cl [Example 14, 3-Chloro-2,6-dimethyl-5-(4-(3-[6-(trifluoromethyl)-3,4-dihydro-2(1H)-isoquinolinyl]-1-propyn-1-yl}phenyl)-4(1H)-pyridinone hydrochloride]
< 0.125 µg/mL | COCCN(CC#Cc1ccc(-c2c(C)[nH]c(C)c(Cl)c2=O)cc1)Cc1ccc(OC(F)(F)F)cc1 [Example 9, 3-Chloro-2,6-dimethyl-5-(4-{3-[[2-(methyloxy)ethyl]({4-[(trifluoromethyl)oxy]phenyl}-methyl)amino]-1-propyn-1-yl}phenyl)-4(1H)-pyridinone]
< 0.125 µg/mL | Cc1[nH]c(C)c(-c2ccc(C#CCN(C)Cc3ccc(Cl)cc3Cl)cc2)c(=O)c1Cl.Cl [Example 46, 3-Chloro-5-(4-{3-[[(2,4-dichlorophenyl)methyl](methyl)amino]-1-propyn-1-yl}phenyl)-2 ,6-dimethyl-4(1H)-pyridinone hydrochloride]
< 0.125 µg/mL | Cc1[nH]c(C)c(-c2ccc(C#CCN(C)Cc3ccc(OC(F)(F)F)cc3)cc2)c(=O)c1Cl.Cl [Example 19, 3-Chloro-2,6-dimethyl-5-(4-{3-[methyl({4-[(trifluoromethyl)oxy]phenyl}methyl)amino]-1-propyn-1-yl}phenyl)-4(1H)-pyridinone hydrochloride]
< 0.125 µg/mL | Cc1ccc(CN(C)CC#Cc2ccc(-c3c(C)[nH]c(C)c(Cl)c3=O)cc2)s1.Cl [Example 42, 3-Chloro-2,6-dimethyl-5-[4-(3-{methyl[(5-methyl-2-thienyl)methyl]amino}-1-propyn-1-yl)phenyl]-4(1H)-pyridinone hydrochloride]
< 0.125 µg/mL | Cc1[nH]c(C)c(-c2ccc(C#CCN(C)Cc3ccc(C(F)(F)F)cc3C(F)(F)F)cc2)c(=O)c1Cl [Example 4, 3-(4-{3-[{[2,4-Bis(trifluoromethyl)phenyl]methyl}(methyl)amino]-1-propyn-1-yl}phenyl)-5-chloro-2,6-dimethyl-4(1H)-pyridinone]
< 0.125 µg/mL | Cc1[nH]c(C)c(-c2ccc(C#CCN(C)Cc3cccn3C)cc2)c(=O)c1Cl.Cl [Example 44, 3-Chloro-2,6-dimethyl-5-[4-(3-{methyl[(1-methyl-1H-pyrrol-2-yl)methyl]amino}-1-propyn-1-yl)phenyl]-4(1H)-pyridinone hydrochloride]
< 0.125 µg/mL | CCCN(CC#Cc1ccc(-c2c(C)[nH]c(C)c(Cl)c2=O)cc1)Cc1ccc(OC(F)(F)F)cc1 [Example 20, 3-Chloro-2,6-dimethyl-5-(4-{3-[propyl({4-[(trifluoromethyl)oxy]phenyl}methyl)amino]-1-propyn-1-yl}phenyl)-4(1H)-pyridinone]
< 0.125 µg/mL | Cc1[nH]c(C)c(-c2ccc(C#CCN3CCc4cccc(C(F)(F)F)c4C3)cc2)c(=O)c1Cl.Cl [Example 15, 3-Chloro-2,6-dimethyl-5-(4-{3-[8-(trifluoromethyl)-3,4-dihydro-2(1H)-isoquinolinyl]-1-propyn-1-yl}phenyl)-4(1H)-pyridinone hydrochloride]
< 0.125 µg/mL | Cc1[nH]c(C)c(-c2ccc(C#CCN(C)CCc3ccc(OC(F)(F)F)cc3)cc2)c(=O)c1Cl.Cl [Example 17, 3-Chloro-2,6-dimethyl-5-(4-{3-[methyl(2-{4-[(trifluoromethyl)oxy]phenyl}ethyl)amino]-1-propyn-1-yl}phenyl)-4(1H)-pyridinone hydrochloride]

same assay, conditions: Plasmodium falciparum, Erythrocyte

SMILES | IC50
Cc1[nH]c(C)c(-c2ccc(CCCN3CCC(c4ccc(OC(F)(F)F)cc4)CC3)cc2)c(=O)c1Cl [Example 52, 3-Chloro-2,6-dimethyl-5-{4-[3-(4-{4-[(trifluoromethyl)oxy]phenyl}-1-piperidinyl)propyl]phenyl}-4(1H)-pvridinone hydrochloride] | < 0.125 µg/mL

— patent EP2246329A1, “4(1H)-pyridinone derivatives and their use as antimalaria agents” (Glaxo Group Limited, priority 2009, dated 2010)
